According to patent EP0643693B1, “REVERSAL OF MULTI-DRUG RESISTANCE BY TRIPHENYL-PIPERIDINE DERIVATIVES” (MERRELL PHARMACEUTICALS INC., priority 1992, dated 1993):
Where a name gives a salt, the structure may show the parent alone.

Tests used:
[1] = test system: multidrug resistant human epidermoid carcinoma (KBV1) cells; experiment: Growth inhibition of vinblastine-resistant KBV1 cells (reversal of multidrug resistance); type: cell-based
Method: The ability of compounds of this invention to reverse multi drug resistance can be determined using standard test procedures. The ability of the test compounds to inhibit the growth of multidrug resistant human epidermoid carcinoma (KBV1) cells in the presence of both Vinblastine and the compound was determined. […]

[2] = test system: multidrug resistant human epidermoid carcinoma (KBV1) cells; experiment: as above; type: cell-based; remark: listed apart in the source

| SMILES | inhibition at 0.06 µM ([1]; KB-V1, compound 0.06 µM + VLB at 0.25 µg/ml) [%] | inhibition at 0.12 µM ([1]; KB-V1, compound 0.12 µM + VLB at 0.25 µg/ml) [%] | inhibition at 0.18 µM ([1]; KB-V1, compound 0.18 µM + VLB at 0.25 µg/ml) [%] | inhibition at 0.23 µM ([1]; KB-V1, compound 0.23 µM + VLB at 0.25 µg/ml) [%] | inhibition at 0.06 µM ([2]; Homo sapiens, KB-V1, compound alone, 0.06 µM) [%] | inhibition at 0.12 µM ([2]; Homo sapiens, KB-V1, compound alone, 0.12 µM) [%] | inhibition at 0.18 µM ([2]; Homo sapiens, KB-V1, compound alone, 0.18 µM) [%] | inhibition at 0.23 µM ([2]; Homo sapiens, KB-V1, compound alone, 0.23 µM) [%] | inhibition at 0.25 µg/mL ([2]; Homo sapiens, KB-V1, VLB at 0.25 µg/ml alone, read-out: growthinhibition) [%] | growth inhibition ([2]; Vinblastine (0.25 µg/ml) alone) |
| --- | --- | --- | --- | --- | --- | --- | --- | --- | --- | --- |
| COc1ccc(CCN2CCCCC2CC(c2ccccc2)c2ccccc2)cc1OC (stereo not shown) [1-(3,4-Dimethoxyphenethyl)-2-(2,2-diphenylethyl)piperidine Maleate] | 30.4 | 60 | 91.6 | 94.2 | 1 | 0 | 8.1 | 12.2 | – | – |
| CC[C@]1(O)C[C@@H]2CN(CCc3c([nH]c4ccccc34)[C@@](C(=O)OC)(c3cc4c(cc3OC)N(C)[C@H]3[C@@](O)(C(=O)OC)[C@H](OC(C)=O)[C@]5(CC)C=CCN6CC[C@]43[C@@H]65)C2)C1 [Vinblastine, reference compound] | – | – | – | – | – | – | – | – | 0 to 10 | 0 - 10% |
